The molecules below were run against T1, human TLR7 (Homo sapiens, UniProt Q9NYK1) (assay: TLR7 inhibition reporter assay (HEK-Blue SEAP)). Details: HEK-Blue cells overexpressing human TLR7, gardiquimod 7.5 μM, 22 hour incubation.
T1 construct: host or cells: HEK-Blue cells
T1 sequence (Q9NYK1 27-1049): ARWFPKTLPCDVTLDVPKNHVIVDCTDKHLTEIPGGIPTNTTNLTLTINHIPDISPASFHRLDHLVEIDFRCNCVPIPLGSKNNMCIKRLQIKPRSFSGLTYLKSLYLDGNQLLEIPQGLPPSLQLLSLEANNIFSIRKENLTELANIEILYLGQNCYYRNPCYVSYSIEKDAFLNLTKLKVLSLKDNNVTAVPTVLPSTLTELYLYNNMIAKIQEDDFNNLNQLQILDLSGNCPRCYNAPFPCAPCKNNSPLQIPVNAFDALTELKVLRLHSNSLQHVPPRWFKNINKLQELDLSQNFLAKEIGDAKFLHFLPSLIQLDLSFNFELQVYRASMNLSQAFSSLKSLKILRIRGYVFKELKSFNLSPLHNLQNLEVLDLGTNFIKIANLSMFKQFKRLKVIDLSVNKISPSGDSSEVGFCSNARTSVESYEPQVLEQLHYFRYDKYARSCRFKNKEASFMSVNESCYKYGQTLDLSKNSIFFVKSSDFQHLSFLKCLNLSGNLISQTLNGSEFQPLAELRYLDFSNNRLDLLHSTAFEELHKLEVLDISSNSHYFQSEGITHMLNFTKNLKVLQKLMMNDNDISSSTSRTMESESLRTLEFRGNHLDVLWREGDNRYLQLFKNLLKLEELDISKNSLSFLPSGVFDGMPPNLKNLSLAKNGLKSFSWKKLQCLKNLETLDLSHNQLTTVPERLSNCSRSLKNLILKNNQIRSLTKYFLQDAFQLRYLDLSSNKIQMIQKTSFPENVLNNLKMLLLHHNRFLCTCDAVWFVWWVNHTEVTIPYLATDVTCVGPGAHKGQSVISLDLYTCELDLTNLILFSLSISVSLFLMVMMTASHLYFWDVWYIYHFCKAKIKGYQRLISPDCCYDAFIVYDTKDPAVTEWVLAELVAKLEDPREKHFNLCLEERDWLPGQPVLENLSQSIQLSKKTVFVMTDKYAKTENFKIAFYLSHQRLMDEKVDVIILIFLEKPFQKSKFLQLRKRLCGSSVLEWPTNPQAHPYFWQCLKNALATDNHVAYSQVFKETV
Assay type: cell-based
Procedure, shortened: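 Dose-response testing from 0.05 nM to 50 μM final was done on reporter cells for 22 hours at 37° C. Secreted SEAP was then detected, and inhibition was calculated as percent reduction of the agonist-plus-DMSO signal compared with wells given a known inhibitor.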

`CCN1CCC[C@@H](n2c(=O)[nH]c3cc(-c4cc(OC)c5ncnn5c4)c(C)cc32)C1` [Example 52, (R)-1-(1-ethylpiperidin-3-yl)-5-(8-methoxy-[1,2,4]triazolo[1,5-a]pyridin-6-yl)-6-methyl-1,3-dihydro-2H-benzo[d]imidazol-2-one] was tested. Which IC50 did it give?
Its IC50 is 65.3 nM.

`COc1cc(-c2cc3[nH]c(=O)n([C@H]4CC[C@@H](N(C)C)CC4)c3cc2C)cn2ncnc12` [Example 48, 1-((1s,4s)-4-(dimethylamino)cyclohexyl)-5-(8-methoxy-[1,2,4]triazolo[1,5-a]pyridin-6-yl)-6-methyl-1,3-dihydro-2H-benzo[d]imidazol-2-one] was tested. Which IC50 did it give?
The IC50 was 14.8 nM.

Which IC50 does the source give for `CCC(CC)CN1CCC[C@@H](n2c(=O)[nH]c3cc(-c4cc(C)c5ncnn5c4)c(C)cc32)C1` [Example 45, (R)-1-(1-(2-ethylbutyl)piperidin-3-yl)-6-methyl-5-(8-methyl-[1,2,4]triazolo[1,5-a]pyridin-6-yl)-1,3-dihydro-2H-benzo[d]imidazol-2-one] here?
The IC50 was 29.5 nM.

With `COc1cc(-c2cc3[nH]c(=O)n([C@H]4CC[C@@H](NC5CCC5)CC4)c3cc2C)cn2ncnc12` [Example 58, 1-((1s,4s)-4-(cyclobutylamino)cyclohexyl)-5-(8-methoxy-[1,2,4]triazolo[1,5-a]pyridin-6-yl)-6-methyl-1,3-dihydro-2H-benzo[d]imidazol-2-one] as the molecule, how does the IC50 read?
The IC50 was 16.2 nM.

Which IC50 does the source give for `COc1cc(-c2cc3[nH]c(=O)n([C@@H]4CCCN(C)C4)c3cc2C)cn2ncnc12` [Example 51, (R)-5-(8-methoxy-[1,2,4]triazolo[1,5-a]pyridin-6-yl)-6-methyl-1-(1-methylpiperidin-3-yl)-1,3-dihydro-2H-benzo[d]imidazol-2-one] here?
The IC50 was 32.5 nM.

`COc1cc(-c2cc3[nH]c(=O)n([C@@H]4CCCN(C5CCC5)C4)c3cc2C)cn2ncnc12` [Example 69, (R)-1-(1-cyclobutylpiperidin-3-yl)-5-(8-methoxy-[1,2,4]triazolo[1,5-a]pyridin-6-yl)-6-methyl-1,3-dihydro-2H-benzo[d]imidazol-2-one] was tested. Which IC50 did it give?
The IC50 was 96.9 nM.

How did the IC50 turn out when `Cc1cc2c(cc1-c1cc(C)c3ncnn3c1)[nH]c(=O)n2C1CCN(C(C)C)CC1` [Example 2, 1-(1-isopropylpiperidin-4-yl)-6-methyl-5-(8-methyl-[1,2,4]triazolo[1,5-a]pyridin-6-yl)-1,3-dihydro-2H-benzo[d]imidazol-2-one] was run?
The IC50 was 68.8 nM.

`COc1cc(-c2cc3[nH]c(=O)n([C@H]4CC[C@@H](NC(C)C)CC4)c3cc2C)cn2ncnc12` [Example 50, 1-((1s,4s)-4-(isopropylamino)cyclohexyl)-5-(8-methoxy-[1,2,4]triazolo[1,5-a]pyridin-6-yl)-6-methyl-1,3-dihydro-2H-benzo[d]imidazol-2-one] was tested. Which IC50 did it give?
Its IC50 is 38.5 nM.

With `Cc1cc2c(cc1-c1cc(C)c3ncnn3c1)[nH]c(=O)n2[C@H]1CC[C@@H](NCc2ncn(C)n2)CC1` [Example 33, 6-methyl-1-((1s,4s)-4-(((1-methyl-1H-1,2,4-triazol-3-yl)methyl)amino)cyclohexyl)-5-(8-methyl-[1,2,4]triazolo[1,5-a]pyridin-6-yl)-1,3-dihydro-2H-benzo[d]imidazol-2-one] as the molecule, how does the IC50 read?
The IC50 was 138 nM.

Reference: US12187723B2 (BRISTOL-MYERS SQUIBB COMPANY, priority 2019, dated 2025)
